Test [1] has as its system Walker carcinosarcoma 256. Description: Walker carcinosarcoma 256 tumour growth inhibition in rats. The class given is in vivo, Sprague-Dawley rats. As to conditions: daily p.o. for 5 days, result in words. From the text:
(§1) LD50 is the dose that causes a 50 percent lethality of the animals, and ED50 is the dose that causes a 50 percent reduction of tumour size.
(§2) The experimental design and the interpretation of the results are in accordance with the standards set by the CCNSC (Cancer Chemotherpy Reports, January 1959 and December 1962).
Walker carcinosarcoma 256.
(§3) Experimental animals: Sprague-Dawley rats.
Tumour implant: Tumour pieces with 2-4 mm diameter, sub-
Therapy: Daily p.o. administration for 5 days starting on
the day following implantation.
Termination: The animals are killed on the 9th day.
(§4) Evaluation: Weights of tumours of test animals are compared
(§5) with those of control animals.

In a further test the test system is Hepatome AH 130. The test is described as follows: Hepatome AH 130 tumour growth inhibition in rats. As to conditions: one i.p. injection, result in words. The class given is in vivo, Sprague-Dawley rats.
Text: as §1, §2, §3
Tumour implant: 5 × 10^6 tumour cells i.p.
(§6) Therapy: One injection i.p. on the day following implanta-
(§7) Termination: The animals are killed on the 8th day.
as §4, §5

Test [2] concerns Ehrlich ascites tumour, ELD hyperdiploid. Description: Ehrlich ascites tumour, ELD hyperdiploid (46 chromosomes), growth inhibition in mice. The format is in vivo, SPF NMRI mice. As to conditions: one i.p. injection, result in words.
Text: as §2
Ehrlich ascites tumour, ELD hyperdiploid
Experimental animals: SPF NMRI mice.
Tumour implant: 2 × 10^6 tumour cells i.p.
as §6, §7
Evaluation: Weight of tumours of test animals compared with
those of control animals.

`CC(=O)[C@@]1(OC(=O)COC(=O)c2cccc(N(CCCl)CCCl)c2)CC[C@H]2[C@@H]3CCC4=CC(=O)CC[C@]4(C)[C@H]3CC[C@@]21C` [3:6, 17α-/3-(N,N-bis(2-chloroethyl)amino)benzoyloxyacetoxy/pregn-4-ene-3,20-dione]: the antitumour activity result (in test [1]; in the test on Hepatome AH 130; in test [2]) was “exhibit antitumour activity” each time.
Regarding `CC(=O)[C@@]1(OC(=O)COC(=O)[C@@H](N)Cc2ccc(N(CCCl)CCCl)cc2)CC[C@H]2[C@@H]3CCC4=CC(=O)CC[C@]4(C)[C@H]3CC[C@@]21C` [3:12, 17-[(2S)-2-amino-3-(4-(N,N-bis(2-chloroethyl)amino)phenyl)propanoyloxyacetoxy]pregn-4-ene-3,20-dione], the antitumour activity result in test [1] and in test [2] was “exhibit antitumour activity” each time.
Turning to `CC(=O)[C@@]1(OC(=O)COC(=O)CCCc2ccc(N(CCCl)CCCl)cc2)CC[C@H]2[C@@H]3C=C(Cl)C4=CC(=O)[C@@H]5C[C@@H]5[C@]4(C)[C@H]3CC[C@@]21C` [3:11, 6-chloro-17α-[4-(4-(N,N-bis(2-chloroethyl)amino)phenyl)butanoyloxyacetoxy]-1α,2α-methylenepregna-4,6-diene-3,20-dione], the antitumour activity result in test [1] and in test [2] was “exhibit antitumour activity” in each case.
For the compound `CC(=O)N[C@@H](Cc1ccc(N(CCCl)CCCl)cc1)C(=O)OCC(=O)O[C@]1(C(C)=O)CC[C@H]2[C@@H]3CCC4=CC(=O)CC[C@]4(C)[C@H]3CC[C@@]21C` [3:14, 17-[(2S)-2-acetamido-3-(4-(N,N-bis(2-chloroethyl)amino)phenyl)propanoyloxyacetoxy]pregn-4-ene-3,20-dione], the antitumour activity result in test [1] and in test [2] was “exhibit antitumour activity” each time.
`CC(=O)[C@@]1(OC(=O)COC(=O)c2ccc(C)c(N(CCCl)CCCl)c2)CC[C@H]2[C@@H]3C=C(Cl)C4=CC(=O)CC[C@]4(C)[C@H]3CC[C@@]21C` [3:18, 6-chloro-17α-[3-(N,N-bis(2-chloroethyl)amino)-4-methylbenzoyloxyacetoxy]pregna-4,6-diene-3,20-dione]: in test [1], the antitumour activity result was “exhibit antitumour activity”.
`CC(=O)[C@@]1(OC(=O)CCCNC(=O)Cc2ccc(N(CCCl)CCCl)cc2)CC[C@H]2[C@@H]3CCC4=CC(=O)CC[C@]4(C)[C@H]3CC[C@@]21C` [6:1, 17α-/4-(4-(N,N-bis(2-chloroethyl)amino)phenylacetylamino)butanoyloxy/pregn-4-ene-3,20-dione]: the antitumour activity entry in test [1] and in test [2] was “exhibit antitumour activity” throughout.
For the compound `CC(=O)[C@@]1(OC(=O)C(C)OC(=O)/C=C/c2ccccc2N(CCCl)CCCl)CC[C@H]2[C@@H]3C=C(C)C4=CC(=O)CC[C@]4(C)[C@H]3CC[C@@]21C` (stereo partly drawn) [3:9, 17α-/2-((2E)-3-(2-(N,N-bis(2-chloroethyl)amino)phenyl)propenoyloxy)propanoyloxy/-6-methylpregna-4,6-diene-3,20-dione], the antitumour activity entry (in the test with Hepatome AH 130; in test [2]) was “exhibit antitumour activity” throughout.
Turning to `CC(=O)[C@@]1(OC(=O)COC(=O)CCCc2ccc(N(CCCl)CCCl)cc2)CC[C@H]2[C@@H]3C[C@H](C)C4=CC(=O)CC[C@]4(C)[C@H]3CC[C@@]21C` [3:16, 17α-[4-(4-(N,N-bis(2-chloroethyl)amino)phenyl)butanoyloxyacetoxy]-6α-methylpregn-4-ene-3,20-dione], the antitumour activity entry in test [1] and in test [2] was “exhibit antitumour activity” in each case.
With `CC(=O)[C@@]1(OC(=O)CCCOC(=O)CCCc2ccc(N(CCCl)CCCl)cc2)CC[C@H]2[C@@H]3C[C@H](C)C4=CC(=O)CC[C@]4(C)[C@H]3CC[C@@]21C` [3:21, 17α-[4-(4-(4-(N,N-bis(2-chloroethyl)amino)phenyl)butanoyloxy)butanoyloxy]-6α-methylpregn-4-ene-3,20-dione], the antitumour activity result in test [1] is “exhibit antitumour activity”.

Source of the values: patent US4177269A, “Novel 17-esters of 17α-hydroxy gestogens, compositions containing such compounds, processes for their preparation and methods of treatment therewith” (Aktiebolaget Leo, priority 1976, dated 1979).
